# Assay results published in US20220110910A1, “CANNABINOID-CONTAINING COMPLEX MIXTURES FOR THE TREATMENT OF CYTOKINE RELEASE SYNDROME WHILE PRESERVING KEY ANTI-VIRAL IMMUNE REACTIONS” (GBS Global BioPharma, Inc., priority 2020, published 2022).
# Tests used:
# Format in all cases: cell-based, human
# PBMC = test: Immune modulation survey of single compounds (all functional responses); settings: 0.001-10 μM
# Procedure: In immunological activity experiments, PBMC suspensions were pre-treated with cannabinoid and/or terpene compounds for 30 minutes before treatment with designated stimuli, cultured in 96 well tissue culture plates, and incubated at 37° C. and 5.0% CO2. In pDC experiments, cell suspensions were stimulated with CpG-ODN Type A 2216 (15 μg/mL) (InvivoGen©, San Diego, Calif.) following treatment with cannabinoids. Golgi transport inhibitors Monensin (2 μM)/Brefeldin A (3.0 μg/mL) (Thermo Fisher Scientific, Waltham, Mass.) were added to culture 3 hours post-stimulation, and after 7 hours of stimulation cells were harvested for evaluation by flow cytometry for IFNα and TNFα. […] CD25 and CD69 were assessed by flow cytometry 24 hours post-stimulation. In proliferation experiments, cell suspensions were incubated with CFSE Cell Division Tracker (Biolegend) according to manufacturer protocols, harvested 4 days post-stimulation and assessed by flow cytometry. […]
# In brief, pDC, monocyte and T cell were identified using antibodies directed against unique epitopes for each cell type and analyzed by flow cytometry. […] For intracellular staining, fixed cells were permeabilized in BD Permwash and incubated with appropriate antibodies and 7% human AB serum. pDC were identified as CD303+and assessed for intracellular IFNα and TNFα. […]
# monocytes [1] = test: IL-1β ELISA in supernatants of LPS-stimulated PBMC
# Procedure: (§1) In immunological activity experiments, PBMC suspensions were pre-treated with cannabinoid and/or terpene compounds for 30 minutes before treatment with designated stimuli, cultured in 96 well tissue culture plates, and incubated at 37° C. and 5.0% CO2. In pDC experiments, cell suspensions were stimulated with CpG-ODN Type A 2216 (15 μg/mL) (InvivoGen©, San Diego, Calif.) following treatment with cannabinoids. Golgi transport inhibitors Monensin (2 μM)/Brefeldin A (3.0 μg/mL) (Thermo Fisher Scientific, Waltham, Mass.) were added to culture 3 hours post-stimulation, and after 7 hours of stimulation cells were harvested for evaluation by flow cytometry for IFNα and TNFα. In monocyte experiments, cell suspensions were stimulated with 1000 ng/mL LPS (S. typhosa, Sigma Aldrich, St. Louis, Mo.) for 18 hours before harvesting supernatants for IL-1β, Golgi blocked for 6 hours before harvesting cells for assessment of IL-6, or cultured for 48 hours before harvesting cells for assessment of HLA-DR, CD80, and CD86. In phagocytosis experiments, cell suspensions were treated with 3.0 mg/mL of pHrodo Green BioParticles (Thermo Fisher). In T cell experiments, cells were plated on 96 well tissue culture plates pre-coated with 5.0 μg/mL anti-CD3 (clone UCHT1, Biolegend, San Diego, Calif.) and stimulated with 5.0 μg/mL anti-CD28 (clone 28.2, Biolegend) and supplemented with 5.0 ng/mL IL-2 (Roche Applied Science, Indianapolis, Ind.). CD25 and CD69 were assessed by flow cytometry 24 hours post-stimulation. In proliferation experiments, cell suspensions were incubated with CFSE Cell Division Tracker (Biolegend) according to manufacturer protocols, harvested 4 days post-stimulation and assessed by flow cytometry. Cell suspensions were further stimulated with 50 ng/mL phorbol 12-myristate 13-acetate (PMA) and 1000 ng/mL ionomycin (Io) at 4 days post-stimulation for 18 hours, Golgi blocked for 6 hours, and harvested for IL-4 and IFNγ assessment by flow cytometry.
# To quantify IL-1β produced by monocytes, supernatants were collected from LPS stimulated cell suspensions after 18 hours and frozen at −80° C. ELISA MAX from Biolegend was used as per manufacturer protocol to quantify IL-1β to a sensitivity of […].
# CD8+ T cells [2] = test: Intracellular IFNγ after anti-CD3/anti-CD28 stimulation and PMA/ionomycin; settings: 0.001 μM; vs vehicle
# Procedure: as §1
# (§2) In brief, pDC, monocyte and T cell were identified using antibodies directed against unique epitopes for each cell type and analyzed by flow cytometry. Cells were fixed in BD CytoFix and resuspended in FACS buffer for extracellular staining. […] For intracellular staining, fixed cells were permeabilized in BD Permwash and incubated with appropriate antibodies and 7% human AB serum. pDC were identified as CD303+and assessed for intracellular IFNα and TNFα. Monocytes were identified as CD14+ and assessed for extracellular HLA-DR, CD80, CD86, and intracellular TNFα and IL-6. […] T cells were identified as CD3+ and T cell subsets identified by CD4+ and CD8+ and assessed for extracellular CD25 and CD69 and intracellular IFNγ and IL-4. […]
# CD4+ T cells [3] = test: Intracellular IFNγ and IL-4 after anti-CD3/anti-CD28 stimulation and PMA/ionomycin; settings: 0.001 μM; vs vehicle
# Procedure: as §1, §2
# monocytes [4] = test: Co-stimulatory markers HLA-DR, CD80, CD86 on monocytes after LPS; settings: 2 days
# Procedure: as §1
# (§3) In brief, pDC, monocyte and T cell were identified using antibodies directed against unique epitopes for each cell type and analyzed by flow cytometry. Cells were fixed in BD CytoFix and resuspended in FACS buffer for extracellular staining. To determine the changes in cell viability in mixed PBMC, gates were first set on singlet events, then CD45+ cells, then populations identified by CD3+ (T cells) and CD14+ (monocytes), and then 7-AAD- for viability. Likewise, for pDC viability experiments, pDC were identified as CD303+ and viable by exclusion of Near IR L/D stain (Life Technologies, Carlsbad, Calif.). For intracellular staining, fixed cells were permeabilized in BD Permwash and incubated with appropriate antibodies and 7% human AB serum. pDC were identified as CD303+and assessed for intracellular IFNα and TNFα. Monocytes were identified as CD14+ and assessed for extracellular HLA-DR, CD80, CD86, and intracellular TNFα and IL-6. In phagocytosis experiments, PBMC were identified as CD45+ and monocytes were identified based on side scatter and then phagocytosing monocytes. T cells were identified as CD3+ and T cell subsets identified by CD4+ and CD8+ and assessed for extracellular CD25 and CD69 and intracellular IFNγ and IL-4. To analyze T cell proliferation, FlowJo 10.0 proliferation tool was used by setting the undivided peak of CFSE stained cells in each sample.
# CD8+ T cells [5] = test: T cell proliferation (CFSE, FlowJo Proliferation tool); settings: 0.01 μM
# Procedure: as §1, §2
# CD4+ T cells [6] = test: as above; settings: 0.01 μM
# Procedure: as §1, §2
# monocytes [7] = test: TNFα+ monocytes after CpG-ODN stimulation (intracellular staining); settings: 10 μM; CpG-ODN 15 μg/mL, 6 hours; vs vehicle
# Procedure: FIGS. 9A-9B reveal the TNFα decreasing potential of cannabinol (CBN). […] PBMC were isolated from human peripheral blood and pre-treated with the indicated concentrations of cannabinol for 30 minutes, followed by stimulation with 15 μg/mL CpG-ODN for 6 hours (FIG. 9A). Cells were non-enzymatically released from culture plates and assessed for the percentage of TNFα+ monocytes (FIG. 9A) by intracellular staining. For FIG. 9B, PBMC were isolated from human peripheral blood and pre-treated with the indicated concentrations of cannabinol for 30 minutes, followed by treatment with 3.0 mg/mL of pHrodo Green BioParticles (FIG. 9B). In FIG. 9B, cells were treated with 3.0 mg/mL of pHrodo Green BioParticles and assessed for phagocytosis monocytes by flow cytometry within 2 hours. Data are normalized to each donor's vehicle control when appropriate and presented as mean±SEM. N=4-6 donors per treatment group. […] *p<0.05 when compared to VH (FIG. 9A), or **p<0.01 when compared to VH (FIG. 9B), by repeated measure one-way ANOVA with Dunnett's posttest.
# as §2
# [8] = tested on: plasmacytoid dendritic cells (pDC); test: IFNα and TNFα in pDC of PBMC stimulated with CpG-ODN (intracellular staining); settings: vs vehicle; for IFNα production by pDC: 0.01, 0.1, and 1.0 μM
# Procedure: as §1, §3
# CD4+ T cells [9] = test: T cell activation markers CD25 and CD69, 24 hours post-stimulation; settings: concentration not given
# Procedure: as §1, with “In T cell experiments, cells were plated on 96 well tissue culture plates pre-coated with 5.0 μg/mL anti-CD3 (clone UCHT1, Biolegend, San Diego, Calif.) and stimulated with 5.0 μg/mL anti-CD28 (clone 28.2, Biolegend) and supplemented with 5.0 ng/mL IL-2 (Roche Applied Science, Indianapolis, Ind.).” left out, “Cell suspensions were further stimulated with 50 ng/mL phorbol 12-myristate 13-acetate (PMA) and 1000 ng/mL ionomycin (Io) at 4 days post-stimulation for 18 hours, Golgi blocked for 6 hours, and harvested for IL-4 and IFNγ assessment by flow cytometry.” left out
# as §2, with “cytometry.” for “cytometry. Cells were fixed in BD CytoFix and resuspended in FACS buffer for extracellular staining.”
# [10] = indicated concentrations (0.001-10 μM)
structure (smiles),measurement,setting,value
C=CC(C)(O)CCC=C(C)C (centres unmarked) [Linalool],any other immunological functional responses measured in the immune modulation survey,PBMC,did not have any statistically significant effects
same,IL-1β secretion in monocytes,"monocytes [1]; 0.001 μM, LPS 1000 ng/mL, vs vehicle",significantly increased
same,IL-1β production,"monocytes [1]; any other concentration (tested 0.001-10 μM, other than 0.001 μM)",did not exhibit any effects
"C/C(=C\CO)CCC[C@H](C)CCC[C@H](C)CCCC(C)C [Phytol A, phytol]",IFNγ in CD8+ T cells,CD8+ T cells [2],not statistically significant
same,IFNγ in CD4+ T cells,CD4+ T cells [3],significantly decreased
"CCCCCc1cc(O)c2c(c1)OC(C)(C)[C@@H]1CCC(C)=C[C@@H]21 [THC, (6aR,10aR)-delta-9-tetrahydrocannabinol, reference compound]",CD80+ co-stimulatory marker in monocytes,"monocytes [4]; 10 μM, vs vehicle",significantly decreased
same,CD86+ co-stimulatory marker in monocytes,monocytes [4]; [10],did not cause a statistically significant change
same,HLA-DR+ co-stimulatory marker in monocytes,monocytes [4]; [10],did not cause a statistically significant change
same,proliferation of CD8+ T cells,CD8+ T cells [5],significantly increased
same,proliferation of CD4+ T cells,CD4+ T cells [6],significantly increased
same,IL-1β in monocytes,"monocytes [1]; 10 μM, LPS 1000 ng/mL, vs vehicle",significantly decreased
same,TNFα in monocytes,monocytes [7],significantly decreased
same,IFNα in plasmacytoid dendritic cells (pDC),"[8]; 10 μM, CpG-ODN 15 μg/mL",significantly decreased
same,TNFα in plasmacytoid dendritic cells (pDC),"[8]; 10 μM, CpG-ODN 15 μg/mL",significantly decreased
"C=CC(C)(O)CC/C=C(\C)CCC=C(C)C (stereo not drawn) [trans-nerolidol, trans nerolidol]",IL-1β in monocytes,"monocytes [1]; 0.01 μM, LPS 1000 ng/mL, vs vehicle",enhanced
same,IL-1β in monocytes,"monocytes [1]; 0.01 μM, LPS 1000 ng/mL, vs vehicle, listed as tN",significantly increased
same,% CD25+ in CD4+ T cells (activation marker),CD4+ T cells [9],increased
"CC1=CCC2CC1C2(C)C (stereo not drawn) [α-Pinene, α-pinene]",IFNα production by pDC,[8]; CpG-ODN,significantly suppressed
same,IFNα production by pDC,"[8]; CpG-ODN, listed as Alpha-Pinene",significantly decreased
same,TNFα production by pDC,"[8]; 0.1 and 1.0 μM, CpG-ODN",significantly suppressed
